We go through 17 molecules from ChEMBL document CHEMBL1821672, “Indolin-2-one p38α inhibitors II: Lead optimisation” (Bioorg Med Chem Lett, 2011).

The structures appear in SMILES notation.

For data set [1], the system named is Caco-2. Description: Apparent permeability from apical to basolateral side of the human Caco2 cells. Type of data set: ADME, cell-based. (Passage across Caco-2 layers is used to estimate intestinal permeability.)
The nature of data set [2]: Metabolic stability in rat hepatic microsomes assessed as compound turnover at 5 uM in presence of NADPH after 30 mins. In kind it is ADME. The settings on record: liver microsomes, read-out: Activity.
Data set [3] in a line: Metabolic stability in human hepatic microsomes assessed as compound turnover at 5 uM in presence of NADPH after 30 mins. In kind it is ADME. The settings on record: liver microsomes, read-out: Activity.
Data set [4] has as its system Caco-2. Description: Apparent permeability from basolateral to apical side of human Caco2 cells. Type of data set: ADME, cell-based.
The nature of data set [5]: Metabolic stability in rat hepatic microsomes assessed as compound turnover at 5 uM in absence of NADPH after 30 mins. The settings on record: liver microsomes, read-out: Activity. Type of data set: ADME. Background: Liver microsomes are a subcellular fraction often used to study metabolism.
Data set [6] is described as follows: Metabolic stability in human hepatic microsomes assessed as compound turnover at 5 uM in absence of NADPH after 30 mins. Type of data set: ADME. The settings on record: liver microsomes, read-out: Activity.
Data set [7] concerns the target T1, Mitogen-activated protein kinase 14 (Homo sapiens, UniProt Q16539). Description: Inhibition of human p38alpha using biotinylated ATF2 substrate by FRET assay.
The target of data set [8] is T1, Mitogen-activated protein kinase 14. As to the kind of experiment: Inhibition of p38alpha in human whole blood assessed as reduction in TNF-alpha production by ELISA.
The test system of another data set is CHO. Description: Cytotoxicity against CHO cells. In kind it is cell-based. To be noted: Cricetulus griseus.
Data set [9] is described as follows: Cmax in rat at 1 mg/kg, iv. In kind it is ADME, organism-based. Also noted: dose 1 mg/kg, route intravenous. The settings on record: in vivo.
A short description of data set [10]: Volume of distribution at steady state in rat at 1 mg/kg, iv. The settings on record: in vivo, read-out: Vdss. Also on record: dose 1 mg/kg, route intravenous. In kind it is ADME, organism-based.
A short description of data set [11]: AUC (0 to infinity) in rat at 1 mg/kg, iv. In kind it is ADME, organism-based. Also on record: time infinity, dose 1 mg/kg, route intravenous. The settings on record: plasma.
Data set [12] is described as follows: Terminal half life in rat at 1 mg/kg, iv. Type of data set: ADME, organism-based. Also on record: dose 1 mg/kg, route intravenous. The settings on record: in vivo, read-out: beta t1/2 (converted).
Data set [13] is described as follows: Clearance in rat at 1 mg/kg, iv. To be noted: in vivo. Type of data set: ADME, organism-based. Also noted: dose 1 mg/kg, route intravenous.
Data set [14] is described as follows: Mean residence time in rat at 1 mg/kg, iv. Also on record: dose 1 mg/kg, route intravenous. The settings on record: in vivo. Type of data set: ADME, organism-based.
A short description of data set [15]: Cytotoxicity against CHO cells at 200 uM. Type of data set: cell-based, Cricetulus griseus. The settings on record: chinese hamster, read-out: INH.
Data set [16] in a line: AUC (0 to infinity) in rat at 10 mg/kg, po. In kind it is ADME, organism-based. Also on record: time infinity, dose 10 mg/kg, route oral. The settings on record: plasma.
A short description of data set [17]: Cmax in rat at 10 mg/kg, po. In kind it is ADME, organism-based. Also noted: dose 10 mg/kg, route oral. The settings on record: in vivo.
Data set [18] is described as follows: Oral bioavailability in rat at 10 mg/kg. In kind it is ADME, organism-based. To be noted: in vivo.

T1 sequence (Q16539 whole entry): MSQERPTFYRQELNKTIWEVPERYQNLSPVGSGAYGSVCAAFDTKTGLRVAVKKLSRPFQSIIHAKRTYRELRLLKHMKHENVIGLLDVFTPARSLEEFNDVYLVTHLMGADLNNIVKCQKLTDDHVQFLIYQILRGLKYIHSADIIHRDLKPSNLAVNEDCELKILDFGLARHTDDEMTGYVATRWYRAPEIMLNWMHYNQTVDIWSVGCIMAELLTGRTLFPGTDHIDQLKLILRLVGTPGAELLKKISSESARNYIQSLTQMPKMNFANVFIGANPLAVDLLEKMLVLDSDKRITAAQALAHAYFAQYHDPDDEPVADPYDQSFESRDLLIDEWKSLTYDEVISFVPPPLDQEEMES

As for `Cc1ccc(C(=O)NC2CC2)cc1-c1ccc2c(c1)NC(=O)C21CCCCC1`, the Papp entry in the data set on Caco-2 [1] and in the data set with Caco-2 [4] was “permeable” in each case. For the same molecule, the metabolised at 0.5 h, 5 µM was 47% in data set [2], 57% in [3], less than 5% in data set [5] and 29% in data set [6].

`Cc1ccc(C(=O)NC2CC2)cc1-c1ccc2c(c1)NC(=O)C2(CCO)CCO` had a half-maximal inhibitory concentration (IC50) in data set [7] of 4570 nM. For the same molecule, the Papp entry with Caco-2 [1] and in the data set with Caco-2 [4] was “permeable” each time.

For the molecule `Cc1c(F)cc(C(=O)NC2CC2)cc1-c1ccc2c(c1)NC(=O)C21CCN(S(C)(=O)=O)CC1`, the IC50 in data set [8] was determined as 20 nM. Also, the Papp result with Caco-2 [1] and with Caco-2 [4] was “permeable” throughout. Also, the metabolised at 0.5 h, 5 µM is 18% in data set [2], 36% in data set [3], less than 5% in data set [5] and 53% in data set [6].

As for `Cc1ccc(C(=O)Nc2ccon2)cc1-c1ccc2c(c1)NC(=O)C21CCOCC1`, the IC50 worked out at 7 nM in data set [8] and 0.09 nM in [7]. Moreover, the Papp result in the data set with Caco-2 [1] and with Caco-2 [4] was “permeable” each time. The metabolised at 0.5 h, 5 µM is 23% in data set [2], 74% in data set [3], less than 5% in [5] and 72% in data set [6].

For the molecule `Cc1ccc(C(=O)NC2CC2)cc1-c1ccc2c(c1)NC(=O)C21CCSCC1`, the IC50 came to 16 nM in data set [8], 0.08 nM in data set [7] and 16000 nM with CHO. In addition, the Papp result in the data set on Caco-2 [1] and in the data set on Caco-2 [4] was “permeable” throughout. Moreover, the metabolised at 0.5 h, 5 µM in data set [2] was 97%; in [3], 72%; in data set [5], less than 5%; in data set [6], 41%.

Regarding `Cc1ccc(C(=O)NC2CC2)cc1-c1ccc2c(c1)NC(=O)[C@]21CC[C@@H](O)CC1`, the IC50 was found to be 5 nM in data set [8] and 1.4 nM in [7]. Further, the Papp entry in the data set with Caco-2 [1] and in the data set with Caco-2 [4] was “permeable” each time. The metabolised at 0.5 h, 5 µM in data set [2] is 2%; in data set [3] it was 65%; in data set [5], less than 5%; in data set [6] it was 81%.

Take `Cc1ccc(C(=O)NC2CC2)cc1-c1ccc2c(c1)NC(=O)[C@]21CC[C@H](O)CC1`: the results for the IC50 in data set [8] and in data set [7] were 11 nM and 1.4 nM, respectively. The Papp result in the data set on Caco-2 [1] and with Caco-2 [4] was “permeable” throughout. In addition, the metabolised at 0.5 h, 5 µM worked out at 15% in data set [2], 40% in data set [3], 7% in [5] and 61% in [6].

`Cc1ccc(C(=O)NC2CC2)cc1-c1ccc2c(c1)NC(=O)C21CCC(F)(F)CC1`: the peak level in data set [9] (Cmax) was 436 ng/mL. Besides, the IC50 in [8] is 10 nM; with CHO, 7000 nM. In data set [10], the Vd amounted to 4.2 L/kg. The Papp result with Caco-2 [1] and with Caco-2 [4] was “permeable” in each case. Also, the metabolised at 0.5 h, 5 µM in data set [2], in [3], in [5] and in data set [6] was less than 5% in each case. This molecule also came in with a total exposure AUC(0-inf) in [11] of 5020 ng·h/mL. Also, the half-life in data set [12] was 14.4 h. In data set [13], this molecule gave a clearance of 3.33 mL/min/kg. The molecule also yielded a mean residence time (MRT) in data set [14] of 21 h.

Turning to `Cc1ccc(C(=O)Nc2ccon2)cc1-c1ccc2c(c1)NC(=O)C21CCC(F)(F)CC1`, the half-maximal inhibitory concentration (IC50) in [8] came to 4.9 nM; in data set [7], 0.9 nM. Moreover, the Papp result in the data set on Caco-2 [1] and in the data set with Caco-2 [4] was “permeable” each time. Also, the metabolised at 0.5 h, 5 µM is 14% in [2], 17% in data set [3], less than 5% in data set [5] and 17% in data set [6].

With `Cc1ncc(C(=O)NC2CC2)cc1-c1ccc2c(c1)NC(=O)C21CCCC1`, in data set [15], the cytotoxicity at 200 µM turned out to be 68%. The 50% inhibitory concentration (IC50) in data set [8] was found to be 150 nM; in data set [7], 7.4 nM. Further, the Papp result in the data set with Caco-2 [1] and with Caco-2 [4] was “permeable” each time. The metabolised at 0.5 h, 5 µM in data set [2] was 30%; in data set [3], 29%; in data set [5], less than 5%; in [6] it was 11%.

Take `Cc1ccc(C(=O)NC2CC2)cc1-c1ccc2c(n1)NC(=O)C21CCCC1`: the IC50 was 128 nM in data set [8] and 58000 nM in the data set with CHO. Besides, the Papp result in the data set on Caco-2 [1] and with Caco-2 [4] was “permeable” in each case. Besides, the metabolised at 0.5 h, 5 µM was 33% in [2], 19% in data set [3], 11% in data set [5] and 16% in data set [6].

With `Cc1ccc(C(=O)NC2CC2)cc1-c1cc2c(cn1)C1(CCCC1)C(=O)N2`, the cytotoxicity at 200 µM in data set [15] is 29%. Moreover, the half-inhibitory concentration (IC50) in data set [8] amounted to 64 nM. Also, the Papp result in the data set with Caco-2 [1] and in the data set with Caco-2 [4] was “permeable” throughout. The metabolised at 0.5 h, 5 µM in [2] was 21%; in data set [3], 10%; in data set [5] it was less than 5%; in data set [6], less than 5%.

In the case of `Cc1ccc(C(=O)NC2CC2)cc1-c1cnc2c(c1)NC(=O)C21CCOCC1`, the cytotoxicity at 200 µM in [15] came to 36%. The half-maximal inhibitory concentration (IC50) in data set [8] turned out to be 86 nM. Moreover, the Papp entry in the data set with Caco-2 [1] and with Caco-2 [4] was “permeable” throughout. In addition, the metabolised at 0.5 h, 5 µM in [2] was 0%; in data set [3], 8%; in data set [5], 5%; in data set [6] it was 16%.

Take `Cc1ccc(C(=O)NC2CC2)cc1-c1cnc2c(c1)NC(=O)C21CCC(F)(F)CC1`: the IC50 in data set [8] is 188 nM; in data set [7], 2.3 nM; in the data set on CHO, 49000 nM. Besides, the Papp entry with Caco-2 [1] and with Caco-2 [4] was “permeable” throughout. For the same molecule, the metabolised at 0.5 h, 5 µM was 19% in data set [2], 1% in data set [3], less than 5% in data set [5] and less than 5% in data set [6].

Take `Cc1ccc(C(=O)NC2CC2)cc1-c1cnc2c(c1)NC(=O)C2(C)C`: the half-maximal inhibitory concentration (IC50) in data set [8] turned out to be 544 nM. For the same molecule, the Papp result with Caco-2 [1] and in the data set with Caco-2 [4] was “permeable” throughout. The metabolised at 0.5 h, 5 µM in [2] is 2%; in data set [3] it was 8%; in data set [5], less than 5%; in [6], 7%.

Turning to `Cc1ccc(C(=O)NC2CC2)cc1-c1ncc2c(n1)NC(=O)C21CCCC1`, the IC50 in data set [8] is 1100 nM. Besides, the Papp result with Caco-2 [1] and in the data set with Caco-2 [4] was “permeable” in each case.

With `Cc1ccc(C(=O)NC2CC2)cc1-c1cnc2c(c1)NC(=O)C21CCCC1.Cl`, the Cmax in [9] stood at 1240 ng/mL; in data set [17], 4620 ng/mL. Moreover, the total exposure AUC(0-inf) in data set [16] was determined as 12000 ng·h/mL; in [11], 1850 ng·h/mL. Moreover, the Vd in [10] came out at 1.2 L/kg. Also, the half-life in data set [12] was 3.9 h. This molecule also gave a clearance in data set [13] of 10 mL/min/kg. Moreover, the MRT in data set [14] was determined as 2.2 h. In data set [18], this molecule gave a bioavailability of 65%.

Broadly, the IC50 is the midpoint of a concentration-inhibition curve. One may read the Cmax as the highest concentration seen after dosing. One may read the AUC(0-inf) as total exposure, with the tail of the curve extrapolated. High values mean more exposure, low ones less exposure. Usually clearance stands for the rate of elimination divided by the concentration. A low value points to inefficient removal. By MRT is commonly meant the average time that molecules of a dose stay in the body. As usually defined, the bioavailability is dose-corrected exposure relative to a reference, in per cent. Read a low bioavailability as little systemic uptake.
